The values below come from patent US20260250320A1, “LIPIDATED PEPTIDE INHIBITORS OF INTERLEUKIN-23 RECEPTOR” (Janssen Pharmaceutica NV, priority 2023, published 2026).

Structures are written as SMILES. *1 amine or outer side, *2 acyl side, *3 side chain or, on linkers, in order; H or OH if unused. Where a SMILES comes first, the peptide text is derived from it. Bridges are numbered along the chain shown (N, C = ends). Side-chain parts run from the residue outwards. [ ]: non-standard residue; d: D form. The star is where a group is joined. Trp(7-Me) = Cc1cccc2c(C[C@H](N)C(=O)O)c[nH]c12; C18 diacid = O=C(O)CCCCCCCCCCCCCCCCC(=O)*; γGlu = O=C(O)[C@H](CCC(=O)[*:2])N[*:1]; 2Nal = N[C@@H](Cc1ccc2ccccc2c1)C(=O)O; AEF = NCCOc1ccc(C[C@H](N)C(=O)O)cc1; X2 = C[N+](C)(C)C[C@@H](CC(=O)O)N*; 3Pal = N[C@@H](Cc1cccnc1)C(=O)O; Pen = CC(C)(S)[C@H](N)C(=O)O; Suc = O=C(CCC(=O)[*:2])[*:1]; Thp = NC1(C(=O)O)CCOCC1; AEEA = NCCOCCOCC(=O)O; Sar = CNCC(=O)O

Broadly, the IC50 is the point on the concentration scale where inhibition reaches its midpoint. A lower IC50 goes with inhibition by little substance.

For test [1], the system named is IL-23-stimulated phosphorylated STAT3 in peripheral blood mononuclear cells (PBMCs). As to the kind of experiment: PBMC pSTAT3 Assay. The note with it: PBMCs from healthy donors; 30 min preincubation with peptide; IL-23 5 ng/mL for 30 min; phospho-STAT3 by MSD. Format: cell-based. The essentials:
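Phospho-STAT3 quantified by Meso Scale assay in lysates of PBMCs exposed to IL-23 (5 ng/mL, 30 min, 37 °C) after 30 min peptide pretreatment. Cells were cryopreserved donor PBMCs activated 4 days with anti-CD3 plus IL-1β (100 ng/mL) and starved ~4 h; IC50 reported.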

Test [2] concerns the target T1, IL-23R (Homo sapiens, UniProt Q5VWK5).
T1 construct: HEK293 cells containing IL-23R, IL-12Rβ1 and a firefly luciferase reporter gene driven by a STAT-inducible promoter (Promega); host or cells: HEK293
T1 sequence (Q5VWK5 24-629): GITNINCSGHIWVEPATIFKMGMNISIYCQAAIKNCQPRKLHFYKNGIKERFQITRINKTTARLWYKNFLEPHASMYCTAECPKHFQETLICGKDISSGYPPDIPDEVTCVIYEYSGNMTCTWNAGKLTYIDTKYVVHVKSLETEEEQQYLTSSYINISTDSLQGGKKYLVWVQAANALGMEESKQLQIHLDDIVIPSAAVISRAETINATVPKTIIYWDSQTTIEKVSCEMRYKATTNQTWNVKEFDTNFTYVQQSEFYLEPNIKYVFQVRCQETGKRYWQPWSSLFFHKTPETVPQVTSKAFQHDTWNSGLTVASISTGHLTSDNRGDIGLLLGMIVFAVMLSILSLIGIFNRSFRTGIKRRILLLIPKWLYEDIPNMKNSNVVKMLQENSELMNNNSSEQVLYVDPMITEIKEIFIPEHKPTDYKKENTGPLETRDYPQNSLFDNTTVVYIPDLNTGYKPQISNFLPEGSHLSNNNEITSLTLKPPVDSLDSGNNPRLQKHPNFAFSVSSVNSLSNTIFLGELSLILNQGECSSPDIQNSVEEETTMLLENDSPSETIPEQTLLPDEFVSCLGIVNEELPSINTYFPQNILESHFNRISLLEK
As to the kind of experiment: IL23R Reporter Assay. Type of test: cell-based. The note with it: HEK293 cells containing IL-23R, IL-12Rβ1 and STAT-inducible firefly luciferase reporter; 10 ng/mL IL-23 (EC90); 5 h. The essentials: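 IC50 values were fitted with a 4-parameter Hill equation to luciferase signal, scaled between IL-23-only wells (0% inhibition) and 30 μM reference inhibitor (100%). The readout was a STAT-inducible reporter in IL-23R/IL-12Rβ1 HEK293 cells, stimulated with added 10 ng/mL IL-23 (EC90) for 5 h at 37° C and developed with BioGlo.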

Consider `CC(=O)N[C@H](CCCNC(=N)N)C(=O)N[C@@H]1C(=O)N[C@@H](CC(N)=O)C(=O)N[C@@H]([C@@H](C)O)C(=O)N[C@@H](Cc2c[nH]c3c(C)cccc23)C(=O)N[C@@H](CCCCNC(=O)CCC(=O)N[C@H](CC(=O)O)C[N+](C)(C)C)C(=O)N[C@H](C(=O)N[C@@H](Cc2ccc(OCCN)cc2)C(=O)N[C@@H](Cc2ccc3ccccc3c2)C(=O)NC2(C(=O)N[C@@H](CCC(=O)O)C(=O)N[C@@H](CC(N)=O)C(=O)N[C@@H](Cc3cccnc3)C(=O)N(C)CC(=O)N[C@@H](CCCCNC(=O)COCCOCCNC(=O)COCCOCCNC(=O)CC[C@H](NC(=O)CCCCCCCCCCCCCCCCC(=O)O)C(=O)O)C(N)=O)CCOCC2)C(C)(C)SSC1(C)C` [compound 52, MeCO-r-Pen(3)-N-T-7MeW-K(d)-Pen(3)-AEF-2Nal-THP-E-N-3Pya-Sar-K(PEG2PEG2gEC18OH)-CONH2] (Ac-[dR][Pen]NT[Trp(7-Me)]K([Suc-X2])[Pen][AEF][2Nal][Thp]EN[3Pal][Sar]K([AEEA-AEEA-γGlu-C18 diacid])-NH2; disulfide 2-7), for which the IC50 was under 0.0005 µM in test [1] and 0.05 to 0.5 µM in test [2].

On to `CC(=O)NCCCC[C@@H]1NC(=O)[C@H](Cc2c[nH]c3c(C)cccc23)NC(=O)[C@H]([C@@H](C)O)NC(=O)[C@H](CCCCNC(=O)CCC(=O)N[C@H](CC(=O)O)C[N+](C)(C)C)NC(=O)[C@@H](NC(=O)[C@@H](CCCNC(=N)N)NC(C)=O)C(C)(C)SSC(C)(C)[C@@H](C(=O)N[C@@H](Cc2ccc(OCCN)cc2)C(=O)N[C@@H](Cc2ccc3ccccc3c2)C(=O)NC2(C(=O)N[C@@H](CCC(=O)O)C(=O)N[C@@H](CC(N)=O)C(=O)N[C@@H](Cc3cccnc3)C(=O)N(C)CC(=O)N[C@@H](CCCCNC(=O)COCCOCCNC(=O)COCCOCCNC(=O)CC[C@H](NC(=O)CCCCCCCCCCCCCCCCC(=O)O)C(=O)O)C(N)=O)CCOCC2)NC1=O` [compound 53, MeCO-r-Pen(3)-K(d)-T-7MeW-K(Ac)-Pen(3)-AEF-2Nal-THP-E-N-3Pya-Sar-K(PEG2PEG2gEC18OH)-CONH2] (Ac-[dR][Pen]K([Suc-X2])T[Trp(7-Me)]K(Ac)[Pen][AEF][2Nal][Thp]EN[3Pal][Sar]K([AEEA-AEEA-γGlu-C18 diacid])-NH2; disulfide 2-7), for which the results for the IC50 in test [1] and in test [2] were under 0.0005 µM and 0.05 to 0.5 µM, respectively.

Consider `CC(=O)NCCCC[C@@H]1NC(=O)[C@H](Cc2c[nH]c3c(C)cccc23)NC(=O)[C@H]([C@@H](C)O)NC(=O)[C@H](CC(N)=O)NC(=O)[C@@H](NC(=O)[C@@H](CCCNC(=N)N)NC(=O)CCC(=O)N[C@H](CC(=O)O)C[N+](C)(C)C)C(C)(C)SSC(C)(C)[C@@H](C(=O)N[C@@H](Cc2ccc(OCCN)cc2)C(=O)N[C@@H](Cc2ccc3ccccc3c2)C(=O)NC2(C(=O)N[C@@H](CCC(=O)O)C(=O)N[C@@H](CC(N)=O)C(=O)N[C@@H](Cc3cccnc3)C(=O)N(C)CC(=O)N[C@@H](CCCCNC(=O)COCCOCCNC(=O)COCCOCCNC(=O)CC[C@H](NC(=O)CCCCCCCCCCCCCCCCC(=O)O)C(=O)O)C(N)=O)CCOCC2)NC1=O` [compound 54, succiniccarn-r-Pen(3)-N-T-7MeW-K(Ac)-Pen(3)-AEF-2Nal-THP-E-N-3Pya-Sar-K(PEG2PEG2gEC18OH)-CONH2] ({X2-Suc}-[dR][Pen]NT[Trp(7-Me)]K(Ac)[Pen][AEF][2Nal][Thp]EN[3Pal][Sar]K([AEEA-AEEA-γGlu-C18 diacid])-NH2; disulfide 2-7), for which the values for the IC50 in test [1] and in test [2] were under 0.0005 µM and 0.05 to 0.5 µM, respectively.
